Calls of active or inactive are those of the source. The rule behind the calls is not given here.
What was measured:
P388 [1] = test: Antitumor activity against mouse P388 cells allografted in BDF1 mouse assessed as mouse survival at 50 mg/kg administered 24 hrs post challenge relative to control; assay type: functional, organism-based; parameters: dose 50 mg/kg
Mus musculus [2] = test: Toxicity in mouse P388 cells allografted BDF1 mouse assessed as body weight difference at 25 mg/kg administered 24 hrs post challenge relative to control; assay type: organism-based; parameters: dose 25 mg/kg; details: in vivo
P388 [3] = test: Antitumor activity against mouse P388 cells allografted in BDF1 mouse assessed as increase in survival time at 50 mg/kg administered 24 hrs post challenge relative to control; assay type: functional
Mus musculus [4] = test: Toxicity in mouse P388 cells allografted BDF1 mouse assessed as body weight difference at 100 mg/kg administered 24 hrs post challenge relative to control; assay type: organism-based; parameters: dose 100 mg/kg; details: in vivo
P388 [5] = test: Antitumor activity against mouse P388 cells allografted in BDF1 mouse assessed as increase in survival time at 100 mg/kg administered 24 hrs post challenge relative to control; assay type: functional
Mus musculus [6] = test: Toxicity in mouse P388 cells allografted BDF1 mouse assessed as body weight difference at 50 mg/kg administered 24 hrs post challenge relative to control; assay type: organism-based; parameters: dose 50 mg/kg; details: in vivo
P388 [7] = test: Antitumor activity against mouse P388 cells allografted in BDF1 mouse assessed as increase in survival time at 25 mg/kg administered 24 hrs post challenge relative to control; assay type: functional
P388 [8] = test: Antitumor activity against mouse P388 cells allografted in BDF1 mouse assessed as mouse survival at 25 mg/kg administered 24 hrs post challenge relative to control; assay type: functional, organism-based; parameters: dose 25 mg/kg
P388 [9] = test: Antitumor activity against mouse P388 cells allografted in BDF1 mouse assessed as mouse survival at 6.25 mg/kg administered 24 hrs post challenge relative to control; assay type: functional, organism-based; parameters: dose 6.25 mg/kg
P388 [10] = test: Antitumor activity against mouse P388 cells allografted in BDF1 mouse assessed as mouse survival at 12.5 mg/kg administered 24 hrs post challenge relative to control; assay type: functional, organism-based; parameters: dose 12.5 mg/kg
P388 [11] = test: Antitumor activity against mouse P388 cells allografted in BDF1 mouse assessed as increase in survival time at 6.25 mg/kg administered 24 hrs post challenge relative to control; assay type: functional
Mus musculus [12] = test: Toxicity in mouse P388 cells allografted BDF1 mouse assessed as body weight difference at 12.5 mg/kg administered 24 hrs post challenge relative to control; assay type: organism-based; parameters: dose 12.5 mg/kg; details: in vivo
P388 [13] = test: Antitumor activity against mouse P388 cells allografted in BDF1 mouse assessed as increase in survival time at 12.5 mg/kg administered 24 hrs post challenge relative to control; assay type: functional
Mus musculus [14] = test: Toxicity in mouse P388 cells allografted BDF1 mouse assessed as body weight difference at 6.25 mg/kg administered 24 hrs post challenge relative to control; assay type: organism-based; parameters: dose 6.25 mg/kg; details: in vivo
P388 [15] = test: Antitumor activity against mouse P388 cells allografted in BDF1 mouse assessed as mouse survival at 100 mg/kg administered 24 hrs post challenge relative to control; assay type: functional, organism-based; parameters: dose 100 mg/kg
P388 [16] = test: Antitumor activity against mouse P388 cells allografted in BDF1 mouse assessed as increase in survival time at 3.13 mg/kg administered 24 hrs post challenge relative to control; assay type: functional
Mus musculus [17] = test: Toxicity in mouse P388 cells allografted BDF1 mouse assessed as body weight difference at 3.13 mg/kg administered 24 hrs post challenge relative to control; assay type: organism-based; parameters: dose 3.13 mg/kg; details: in vivo
P388 [18] = test: Antitumor activity against mouse P388 cells allografted in BDF1 mouse assessed as mouse survival at 3.13 mg/kg administered 24 hrs post challenge relative to control; assay type: functional, organism-based; parameters: dose 3.13 mg/kg

| Structure (SMILES) | Activity (P388 [1]) | Activity (Mus musculus [2]) | T/C (P388 [3]) | Activity (Mus musculus [4]) | T/C (P388 [5]) | Activity (Mus musculus [6]) | T/C (P388 [7]) | Activity (P388 [8]) | Activity (P388 [9]) | Activity (P388 [10]) | T/C (P388 [11]) | Activity (Mus musculus [12]) | T/C (P388 [13]) | Activity (Mus musculus [14]) | Activity (P388 [15]) | T/C (P388 [16]) | Activity (Mus musculus [17]) | Activity (P388 [18]) |
| --- | --- | --- | --- | --- | --- | --- | --- | --- | --- | --- | --- | --- | --- | --- | --- | --- | --- | --- |
| O=C1c2ccccc2C(=O)c2c(NCCNCCNCCO)ccc(NCCNCCNCCO)c21 | Active | -1.6 g | 112% | -2.6 g | 120% | -1.3 g | 110% | Active | – | – | – | – | – | – | – | – | – | – |
| O=C1c2ccccc2C(=O)c2c(NCCCNCCO)ccc(NCCCNCCO)c21 | Active | -2.1 g | 133% | -2.6 g | 98% | -2.1 g | 130% | – | Active | Active | 101% | -1.4 g | 117% | 0.9 g | – | – | – | – |
| O=C1c2ccccc2C(=O)c2c(NCCCCCO)ccc(NCCCCCO)c21 | Active | -1.4 g | 78% | -4 g | 88% | -1.5 g | 88% | Active | – | – | – | – | – | – | Active | – | – | – |
| CCNCCNc1ccc(NCCNCC)c2c1C(=O)c1ccccc1C2=O | – | -4.8 g | – | – | – | – | 132% | – | Active | – | 149% | -2.8 g | 168% | -2.2 g | – | 142% | -2.3 g | Active |
| O=C1c2ccccc2C(=O)c2c(NCCSCCO)ccc(NCCSCCO)c21 | Active | -1.6 g | 86% | -2.2 g | 94% | -1.4 g | 95% | Active | – | – | – | – | – | – | Active | – | – | – |
| O=C1c2ccccc2C(=O)c2c(NCCN3CCCCC3)ccc(NCCN3CCCCC3)c21 | Active | -3.6 g | 110% | -4.5 g | 128% | -2.9 g | 104% | Active | – | – | – | – | – | – | Active | – | – | – |

— ChEMBL document CHEMBL3244338, “Antineoplastic agents. Structure-activity relationship study of bis(substituted aminoalkylamino)anthraquinones” (J Med Chem, 1978)
